Results: publication PMC6271349, “Synthesis and Biological Evaluation of 2-Phenoxyacetamide Analogues, a Novel Class of Potent and Selective Monoamine Oxidase Inhibitors” (Molecules, 2014)
pIC50: −log10 of the molar value. Where two headings read alike, the source gives them in different places. Blank lines part the entries; values can stand above or below the compound they belong to.

Key:
Assay type in all cases: biochemical
[1] = target: T1, Human recombinant Monoamine Oxidase B (Homo sapiens, UniProt P27338); experiment: MAOs inhibitory assay (fluorescence-based microplate), MAO-B; settings: recombinant enzyme; inhibitor incubated 37 °C 3 h, borate buffer pH 8.4; mean IC50
T1 construct: purchased Sigma Aldrich M7441
T1 sequence (P27338 1-520): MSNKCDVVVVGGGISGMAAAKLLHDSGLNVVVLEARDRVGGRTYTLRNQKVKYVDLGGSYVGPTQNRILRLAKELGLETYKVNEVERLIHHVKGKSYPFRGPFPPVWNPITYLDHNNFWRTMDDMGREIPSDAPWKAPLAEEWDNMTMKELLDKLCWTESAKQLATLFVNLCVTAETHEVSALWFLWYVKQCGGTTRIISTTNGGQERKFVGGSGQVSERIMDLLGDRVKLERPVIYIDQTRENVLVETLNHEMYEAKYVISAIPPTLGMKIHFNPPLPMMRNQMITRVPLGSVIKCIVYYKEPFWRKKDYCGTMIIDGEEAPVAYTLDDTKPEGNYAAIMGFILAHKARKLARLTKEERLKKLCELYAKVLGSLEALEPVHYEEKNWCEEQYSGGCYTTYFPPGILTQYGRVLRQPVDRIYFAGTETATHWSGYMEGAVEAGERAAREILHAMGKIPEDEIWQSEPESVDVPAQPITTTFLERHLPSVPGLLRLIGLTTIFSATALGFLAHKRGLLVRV
Procedure: (§1) All of these compounds were evaluated for their inhibitory abilities towards MAOs. The inhibition activities against MAO-A and MAO-B of the synthesized compounds were investigated by our reported method.
(§2) Silica gel (100–200 mesh, Qingdao Haiyang Chemical Co., Qingdao, China) was used for flash column chromatography. Analytical thin-layer chromatography was performed with GF254 silica gel. ^1H-NMR spectra were recorded on a Bruker Avance 300 MHz apparatus. HR-ESI-MS and HR-EI analysis were measured on a Bruker micrOTOF-QII and Waters GCT Premier GC-TOF-MS spectrometer, respectively. All chemicals were purchased from the Eastern China Chemical Co (Hangzhou, China). All fluorescent data was recorded on Spectrum M2 (Molecular Device Company). Human recombinant Monoamine Oxidase A (M7316) and B (M7441) (5 mg/mL) were purchased from Sigma Aldrich. Pierce BCA protein assay kit (23227) was purchased from Thermo Scientific.
(§3) MAO IC50 values were determined using our reported fluorescence-based microplate assay. […] The fluorescent signals were measured at λex 360 nm and λem 460 nm on a Spectrum-M2 spectrofluorometer.

[2] = target: T2, Human recombinant Monoamine Oxidase A (Homo sapiens, UniProt P21397); experiment: MAOs inhibitory assay (fluorescence-based microplate), MAO-A; settings: for SI (selectivity index): SI = (IC50 of MAO-B)/(IC50 of MAO-A); for IC50: inhibitor incubated 37 °C 3 h, borate buffer pH 8.4, mean IC50, read-out: IC50 (μM) MAO-A
T2 construct: purchased Sigma Aldrich M7316
T2 sequence (P21397 1-527): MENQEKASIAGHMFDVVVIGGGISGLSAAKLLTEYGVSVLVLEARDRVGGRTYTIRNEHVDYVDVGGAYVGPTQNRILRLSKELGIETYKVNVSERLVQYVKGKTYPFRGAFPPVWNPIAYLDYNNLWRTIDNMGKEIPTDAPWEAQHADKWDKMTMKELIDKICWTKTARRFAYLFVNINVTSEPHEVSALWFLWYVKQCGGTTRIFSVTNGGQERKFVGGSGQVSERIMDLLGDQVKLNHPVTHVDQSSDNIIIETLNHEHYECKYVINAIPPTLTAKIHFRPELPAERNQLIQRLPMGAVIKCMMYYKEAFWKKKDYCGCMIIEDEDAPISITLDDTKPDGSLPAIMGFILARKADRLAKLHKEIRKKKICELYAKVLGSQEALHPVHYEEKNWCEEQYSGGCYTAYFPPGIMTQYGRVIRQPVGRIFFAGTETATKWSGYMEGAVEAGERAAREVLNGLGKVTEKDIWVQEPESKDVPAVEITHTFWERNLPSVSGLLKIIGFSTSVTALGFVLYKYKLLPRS
Procedure: as §1, §2, §3

[3] = target: T3, native MAO-A in SH-SY5Y (neuroblastoma cells) lysate (Homo sapiens, UniProt P21397); experiment: MAO inhibitory activity in SH-SY5Y cell lysate (endogenous MAO-A); settings: for IC50: SH-SY5Y lysate (only endogenous MAO-A activity), repeated three times; for times more potent in SH-SY5Y lysate relative to HepG2 lysate: ratio of lysate IC50 values (HepG2/SH-SY5Y)
T3 construct: endogenous in cells; host or cells: SH-SY5Y (neuroblastoma cells) lysate
T3 sequence (P21397 1-527): T2 sequence (P21397 1-527)
Procedure: (§4) Compounds 12, 21, 22, 25 were chosen for comparison due to their excellent inhibitory activities, and the results were shown in Table 2. […] This is most likely due to the instability of imine group in cell lysates.
as §3
(§5) Cells were cultured at 37 °C and 5% CO2 in RPMI-1640 media containing 100 units/mL penicillin, 100 μg/mL streptomycin, and 10% FBS. For lysis, cells were resuspended at 5 × 10^7 cells/mL in lysis buffer (42.3 mM PBS, 126 mM NaCl, 1.27 mM MgCl2, 0.85 mM EDTA, 1 mM PMSF, 0.95% Triton X-100, 9.5% glycerol, 4% 25× complete protease inhibitor, pH 7.4). The cells were vortexed to mix and keep on ice for 30 min, and then sonicated to break the cells (180 watts). The cell lysate was then clarified by ultracentrifugation at 4 °C for 30 min at 45,000. Total protein concentration was determined via a Bradford Protein Assay Kit (Bio-Rad) and cell lysates were stored at −80 °C until further use.

MAO-A = target: T4, MAO-A (Homo sapiens, UniProt P21397); experiment: Reversibility of MAO-A inhibition (repeated washing method); settings: for inhibition at 0.1 µM: inhibitor 100 nM; for reversibility of MAO-A inhibition: repeated washing method
T4 construct: purchased Sigma Aldrich M7316
T4 sequence (P21397 1-527): T2 sequence (P21397 1-527)
Procedure: (§6) Reversibility of the MAO inhibition with derivatives of acetamides was evaluated by a reported method. […] After incubating for 2 h, an aliquot was stored at 4 °C for the measurement of MAO-A and -B activity. The remaining reaction solution was placed in an Ultrafree-0.5 centrifugal tube with a 30 kDa Biomax membrane (Millipore) and centrifuged at 9000 g for 20 min at 4 °C. The enzyme retained in the membrane was resuspended in a sodium phosphate buffer and centrifuged two successive times. Then, the enzyme retained in the membrane was resuspended in PBS ([…]) and an aliquot of this suspension was used for MAO-A and -B activity measurement. In order to define 100% MAO activity, control experiments were performed simultaneously by replacing the inhibitors with appropriate dilutions of the vehicles. The corresponding values of percent MAO isoforms inhibition (with and without repeated washing) were calculated based on the control experiments.

MAO-B = target: T5, MAO-B (Homo sapiens, UniProt P27338); experiment: Reversibility of MAO-B inhibition (repeated washing method); settings: for inhibition at 0.1 µM: inhibitor 100 nM; for reversibility of MAO-B inhibition: repeated washing method
T5 construct: purchased Sigma Aldrich M7441
T5 sequence (P27338 1-520): T1 sequence (P27338 1-520)
Procedure: as §6

[4] = target: T6, native MAO-B in HepG2 (human hepatocellular liver carcinoma cell) lysate (Homo sapiens, UniProt P27338); experiment: MAO inhibitory activity in HepG2 cell lysate (endogenous MAO-B); settings: HepG2 lysate (only endogenous MAO-B activity); repeated three times
T6 construct: endogenous in cells; host or cells: HepG2 (human hepatocellular liver carcinoma cell) lysate
T6 sequence (P27338 1-520): T1 sequence (P27338 1-520)
Procedure: as §4, §3, §5

[5] = after repeated washing, read-out: MAO-A Inhibiton (%) After Washing
[6] = before washing, read-out: MAO-A Inhibiton (%) Before Washing

SMILES: NC(=O)COc1ccc(C=O)cc1 [Compound 6]
IC50 [1]: 457 µM
SI (selectivity index) [2]: 5.13
IC50 ([2]; recombinant enzyme): 89 µM

SMILES: Cc1ccc(OCC(N)=O)cc1C [Compound 8]
IC50 [1]: 534 µM
SI (selectivity index) [2]: 4.73
IC50 ([2]; recombinant enzyme): 113 µM

SMILES: COC(=O)c1ccccc1OCC(N)=O [Compound 14]
IC50 [1]: 98 µM
SI (selectivity index) [2]: 0.91
IC50 ([2]; recombinant enzyme): 108 µM

SMILES: CC(C)(C)OC(=O)Nc1ccc(OCC(N)=O)cc1 [Compound 15]
IC50 [1]: 296 µM
SI (selectivity index) [2]: 1.51
IC50 ([2]; recombinant enzyme): 196 µM

SMILES: CC(=O)Nc1ccc(OCC(N)=O)cc1 [Compound 16]
IC50 [1]: 553 µM
SI (selectivity index) [2]: 9.07
IC50 ([2]; recombinant enzyme): 61 µM

SMILES: Cc1ccc(SCC(N)=O)cc1C [Compound 18]
IC50 [1]: 366 µM
IC50 ([2]; recombinant enzyme): 292 µM

SMILES: NC(=O)COc1ccc(C2=NCCN2)cc1 [Compound 19]
IC50 [1]: 506 µM
SI (selectivity index) [2]: 8.30
IC50 ([2]; recombinant enzyme): 61 µM

SMILES: NC(=O)COc1ccccc1C1=NCCN1 [Compound 20]
IC50 [1]: 714 µM
SI (selectivity index) [2]: 3.84
IC50 ([2]; recombinant enzyme): 186 µM

SMILES: C#CCN=Cc1ccc(OCC(N)=O)cc1 [Compound 21, 2-(4-((prop-2-ynylimino)methyl)phenoxy)acetamide]
IC50 [1]: 0.076 µM
IC50 [4]: 0.41 µM
SI (selectivity index) [2]: 4.22
pIC50 ([2]; recombinant enzyme, read-out: IC50 value (MAO-A)): 7.74
IC50 [3]: 0.18 µM
times more potent in SH-SY5Y lysate relative to HepG2 lysate [3]: 2.3 times

SMILES: NC(=O)COc1ccc(C=NCc2ccccc2)cc1 [Compound 23]
IC50 [1]: 575 µM
SI (selectivity index) [2]: 5.99
IC50 ([2]; recombinant enzyme): 96 µM

SMILES: C#CCN=Cc1ccccc1OCC(N)=O [Compound 25]
IC50 [1]: 0.176 µM
IC50 [4]: 1.81 µM
SI (selectivity index) [2]: 2.59
IC50 ([2]; recombinant enzyme): 0.068 µM
IC50 [3]: 0.88 µM
times more potent in SH-SY5Y lysate relative to HepG2 lysate [3]: 2.1 times

SMILES: C[C@H](NCc1ccc(OCc2cccc(F)c2)cc1)C(N)=O [Safinamide, reference compound]
enzyme activity recovered after repeated washing (MAO-A) (MAO-A; after repeated washing): more than 80%
inhibition at 0.1 µM (MAO-A; [5]): 9.8%
inhibition at 0.1 µM (MAO-A; [6]): 36.1%
reversibility of MAO-A inhibition (MAO-A): reversible
enzyme activity recovered after repeated washing (MAO-B) (MAO-B; after repeated washing): more than 80%
reversibility of MAO-B inhibition (MAO-B): reversible

Continued, values first:

IC50 [1]: 778 µM
SI (selectivity index) [2]: 11.27
IC50 ([2]; recombinant enzyme): 69 µM
SMILES: NC(=O)COc1ccccc1 [Compound 1]

IC50 [1]: 542 µM
SI (selectivity index) [2]: 3.64
IC50 ([2]; recombinant enzyme): 149 µM
SMILES: NC(=O)COc1ccc2ccccc2c1 [Compound 2]

IC50 [1]: 255 µM
SI (selectivity index) [2]: 2.77
IC50 ([2]; recombinant enzyme): 92 µM
SMILES: NC(=O)COc1ccc(F)cc1 [Compound 3]

IC50 [1]: 202 µM
SI (selectivity index) [2]: 0.41
IC50 ([2]; recombinant enzyme): 490 µM
SMILES: NC(=O)COc1ccc(Cl)cc1 [Compound 4]

IC50 [1]: 694 µM
SI (selectivity index) [2]: 7.08
IC50 ([2]; recombinant enzyme): 98 µM
SMILES: NC(=O)COc1ccccc1Cl [Compound 5]

IC50 [1]: 559 µM
SI (selectivity index) [2]: 3.94
IC50 ([2]; recombinant enzyme): 142 µM
SMILES: NC(=O)COc1ccccc1C=O [Compound 7]

IC50 [1]: 663 µM
SI (selectivity index) [2]: 25.5
IC50 ([2]; recombinant enzyme): 26 µM
SMILES: Cc1ccccc1OCC(N)=O [Compound 9]

IC50 [1]: 541 µM
SI (selectivity index) [2]: 180
IC50 ([2]; recombinant enzyme): 3 µM
SMILES: Cc1ccc(OCC(N)=O)cc1 [Compound 10]

IC50 [1]: 775 µM
SI (selectivity index) [2]: 8.07
IC50 ([2]; recombinant enzyme): 96 µM
SMILES: COc1ccccc1OCC(N)=O [Compound 11]

IC50 [1]: 980 µM
SI (selectivity index) [2]: 245
IC50 ([2]; recombinant enzyme): 4 µM
IC50 [3]: 5.4 µM
enzyme activity recovered after repeated washing (MAO-A) (MAO-A; after repeated washing): more than 80%
inhibition at 0.1 µM (MAO-A; [5]): 12.5%
inhibition at 0.1 µM (MAO-A; [6]): 88.7%
reversibility of MAO-A inhibition (MAO-A): reversible
enzyme activity recovered after repeated washing (MAO-B) (MAO-B; after repeated washing): more than 80%
inhibition at 0.1 µM (MAO-B; after repeated washing, read-out: MAO-B Inhibiton (%) After Washing): 8.6%
inhibition at 0.1 µM (MAO-B; before washing, read-out: MAO-B Inhibiton (%) Before Washing): 96.9%
reversibility of MAO-B inhibition (MAO-B): reversible
SMILES: COc1ccc(OCC(N)=O)cc1 [Compound 12, 2-(4-Methoxyphenoxy)acetamide]

IC50 [1]: 177 µM
SI (selectivity index) [2]: 0.82
IC50 ([2]; recombinant enzyme): 217 µM
SMILES: NC(=O)COc1ccccc1C(=O)O [Compound 13]

IC50 [1]: 642 µM
SI (selectivity index) [2]: 3.87
IC50 ([2]; recombinant enzyme): 166 µM
SMILES: NC(=O)CSc1ccccc1 [Compound 17]
